Reference: ChEMBL document CHEMBL5365534, “Discovery of a Novel Ketohexokinase Inhibitor with Improved Drug Distribution in Target Tissue for the Treatment of Fructose Metabolic Disease” (J Med Chem, 2023)
Activity calls are given as the source filed them. The rule behind the calls is not given here.

Experiments:
[1] = Elimination half life in Sprague-Dawley rat at 10 mg/kg, po administered as single dose measured upto 24 hrs by LC-MS/MS analysis; type: ADME, organism-based; conditions: in vivo, read-out: beta t1/2 (converted)
[2] = MRT (0 to t) in Sprague-Dawley rat at 10 mg/kg, po administered as single dose measured upto 24 hrs by LC-MS/MS analysis; type: ADME, organism-based; conditions: in vivo
[3] = MRT (0 to t) in Sprague-Dawley rat at 10 mg/kg, iv administered as single dose measured upto 24 hrs by LC-MS/MS analysis; type: ADME, organism-based; conditions: in vivo
[4] = AUC (0 to infinity) in Sprague-Dawley rat at 10 mg/kg, iv administered as single dose measured upto 24 hrs by LC-MS/MS analysis; type: ADME, organism-based; design: dose 10 mg/kg, time < 24 hrs, route iv; conditions: in vivo
[5] = Tmax in Beagle dog at 5 mg/kg, po administered as single dose measured upto 24 hrs by LC-MS/MS analysis; type: ADME, organism-based, Canis lupus familiaris; conditions: in vivo
[6] = Elimination half life in Beagle dog at 5 mg/kg, po administered as single dose measured upto 24 hrs by LC-MS/MS analysis; type: ADME, organism-based, Canis lupus familiaris; conditions: in vivo, read-out: beta t1/2 (converted)
[7] = AUC (0 to t) in Beagle dog at 5 mg/kg, po administered as single dose measured upto 24 hrs by LC-MS/MS analysis; type: ADME, organism-based, Canis lupus familiaris; design: dose 5 mg/kg, time < 24 hrs, route po; conditions: in vivo
[8] = AUC (0 to infinity) in Beagle dog at 1 mg/kg, iv administered as single dose measured upto 24 hrs by LC-MS/MS analysis; type: ADME, organism-based, Canis lupus familiaris; design: time < 24 hrs, dose 1 mg/kg, route iv; conditions: in vivo
[9] = Volume of distribution at steady state in Beagle dog at 1 mg/kg, iv administered as single dose measured upto 24 hrs by LC-MS/MS analysis; type: ADME, organism-based, Canis lupus familiaris; conditions: in vivo, read-out: Vdss
Rattus norvegicus = experiment: In vivo inhibition of KHK in 16 hr fasted Sprague-Dawley rat assessed as inhibition of metabolic clearance of fructose at 50 to 150 mg/kg, po pretreated for 1 hr followed fructose induction and measured after 0.5 to 3 hrs by ELISA method; type: functional, organism-based; conditions: dose lower 50.0 mg/kg, dose upper […], time upper 4.0 hrs
[10] = Metabolic stability in rat hepatocyte assessed as parent compound remaining at 10 uM measured after 4 hrs by LC-MS/MS analysis; type: ADME, cell-based; conditions: hepatocytes, read-out: Stability
[11] = Metabolic stability in monkey hepatocyte assessed as parent compound remaining at 10 uM measured after 4 hrs by LC-MS/MS analysis; type: ADME, cell-based, Macaca mulatta; conditions: rhesus monkey, hepatocytes, read-out: Stability
[12] = Drug metabolism in mouse hepatocytes assessed as oxidation/hydrogenation/decarboxylation metabolite at 10 uM measured upto 240 mins by LC-MS/MS analysis; type: ADME, cell-based, Hepatocyte; conditions: 4 h
[13] = Drug metabolism in dog hepatocytes assessed as glucuronidation metabolite at 10 uM measured upto 240 mins by LC-MS/MS analysis; type: ADME, cell-based, Canis lupus familiaris, Hepatocyte; conditions: 4 h
Cytochrome P450 2C19 = Cytochrome P450 2C19 (Homo sapiens, UniProt P33261); experiment: Time dependent inhibition of CYP2C19 in human liver microsomes at 10 uM preincubated for 30 mins followed by substrate addition and measured after 15 mins in presence of NADPH by LC-MS/MS analysis; type: ADME, Microsome
Sequence of Cytochrome P450 2C19 (P33261 whole entry): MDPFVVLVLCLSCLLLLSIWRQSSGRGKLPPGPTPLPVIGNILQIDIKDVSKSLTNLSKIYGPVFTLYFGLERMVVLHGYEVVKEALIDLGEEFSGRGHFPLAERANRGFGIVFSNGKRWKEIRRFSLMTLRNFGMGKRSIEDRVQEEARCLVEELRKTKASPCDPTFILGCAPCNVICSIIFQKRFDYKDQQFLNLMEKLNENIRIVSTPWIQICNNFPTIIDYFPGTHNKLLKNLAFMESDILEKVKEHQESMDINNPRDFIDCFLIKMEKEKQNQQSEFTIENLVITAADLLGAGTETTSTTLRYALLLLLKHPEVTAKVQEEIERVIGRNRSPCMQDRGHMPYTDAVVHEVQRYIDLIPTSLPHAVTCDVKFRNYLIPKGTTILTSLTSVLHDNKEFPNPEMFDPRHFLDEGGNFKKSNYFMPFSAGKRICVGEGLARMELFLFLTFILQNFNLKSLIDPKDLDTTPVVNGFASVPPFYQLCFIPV

Ketohexokinase = target: T1, Ketohexokinase (Homo sapiens, UniProt P50053)
T1 sequence (P50053 whole entry): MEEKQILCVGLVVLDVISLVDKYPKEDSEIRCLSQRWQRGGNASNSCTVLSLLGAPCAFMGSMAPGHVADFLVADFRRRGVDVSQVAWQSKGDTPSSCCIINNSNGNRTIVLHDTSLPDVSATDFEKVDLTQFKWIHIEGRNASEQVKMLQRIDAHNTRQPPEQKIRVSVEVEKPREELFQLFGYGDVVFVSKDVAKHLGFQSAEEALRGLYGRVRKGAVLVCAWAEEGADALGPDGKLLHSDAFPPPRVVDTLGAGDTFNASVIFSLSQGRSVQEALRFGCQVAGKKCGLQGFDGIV
Description: Inhibition of N-terminal his tagged human recombinant KHK-A expressed in Escherichia coli incubated for 60 mins in presence of ATP by ADP Glo assay

Cytochrome P450 1A2 = target: T2, Cytochrome P450 1A2 (Homo sapiens, UniProt P05177)
T2 sequence (P05177 whole entry): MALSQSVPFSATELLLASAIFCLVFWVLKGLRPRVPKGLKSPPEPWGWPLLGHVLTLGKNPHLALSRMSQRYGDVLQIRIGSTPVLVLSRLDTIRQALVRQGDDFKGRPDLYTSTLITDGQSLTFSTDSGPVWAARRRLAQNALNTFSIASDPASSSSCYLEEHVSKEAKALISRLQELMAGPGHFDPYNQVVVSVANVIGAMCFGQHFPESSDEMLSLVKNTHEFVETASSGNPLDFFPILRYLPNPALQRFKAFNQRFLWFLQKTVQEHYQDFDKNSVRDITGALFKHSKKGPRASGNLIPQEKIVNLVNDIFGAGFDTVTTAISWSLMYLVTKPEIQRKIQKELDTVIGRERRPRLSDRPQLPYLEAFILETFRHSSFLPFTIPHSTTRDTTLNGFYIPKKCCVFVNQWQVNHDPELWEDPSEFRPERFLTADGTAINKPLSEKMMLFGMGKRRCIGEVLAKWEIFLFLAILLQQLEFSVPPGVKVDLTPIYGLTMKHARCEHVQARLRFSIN
Description: Inhibition of CYP1A2 in human liver microsomes at 0.1 to 30 uM measured for 5 mins in presence of NADPH by LC-MS/MS analysis

[14] = target: Voltage-gated inwardly rectifying potassium channel KCNH2 (Homo sapiens, UniProt Q12809)
Sequence of Voltage-gated inwardly rectifying potassium channel KCNH2 (Q12809 whole entry): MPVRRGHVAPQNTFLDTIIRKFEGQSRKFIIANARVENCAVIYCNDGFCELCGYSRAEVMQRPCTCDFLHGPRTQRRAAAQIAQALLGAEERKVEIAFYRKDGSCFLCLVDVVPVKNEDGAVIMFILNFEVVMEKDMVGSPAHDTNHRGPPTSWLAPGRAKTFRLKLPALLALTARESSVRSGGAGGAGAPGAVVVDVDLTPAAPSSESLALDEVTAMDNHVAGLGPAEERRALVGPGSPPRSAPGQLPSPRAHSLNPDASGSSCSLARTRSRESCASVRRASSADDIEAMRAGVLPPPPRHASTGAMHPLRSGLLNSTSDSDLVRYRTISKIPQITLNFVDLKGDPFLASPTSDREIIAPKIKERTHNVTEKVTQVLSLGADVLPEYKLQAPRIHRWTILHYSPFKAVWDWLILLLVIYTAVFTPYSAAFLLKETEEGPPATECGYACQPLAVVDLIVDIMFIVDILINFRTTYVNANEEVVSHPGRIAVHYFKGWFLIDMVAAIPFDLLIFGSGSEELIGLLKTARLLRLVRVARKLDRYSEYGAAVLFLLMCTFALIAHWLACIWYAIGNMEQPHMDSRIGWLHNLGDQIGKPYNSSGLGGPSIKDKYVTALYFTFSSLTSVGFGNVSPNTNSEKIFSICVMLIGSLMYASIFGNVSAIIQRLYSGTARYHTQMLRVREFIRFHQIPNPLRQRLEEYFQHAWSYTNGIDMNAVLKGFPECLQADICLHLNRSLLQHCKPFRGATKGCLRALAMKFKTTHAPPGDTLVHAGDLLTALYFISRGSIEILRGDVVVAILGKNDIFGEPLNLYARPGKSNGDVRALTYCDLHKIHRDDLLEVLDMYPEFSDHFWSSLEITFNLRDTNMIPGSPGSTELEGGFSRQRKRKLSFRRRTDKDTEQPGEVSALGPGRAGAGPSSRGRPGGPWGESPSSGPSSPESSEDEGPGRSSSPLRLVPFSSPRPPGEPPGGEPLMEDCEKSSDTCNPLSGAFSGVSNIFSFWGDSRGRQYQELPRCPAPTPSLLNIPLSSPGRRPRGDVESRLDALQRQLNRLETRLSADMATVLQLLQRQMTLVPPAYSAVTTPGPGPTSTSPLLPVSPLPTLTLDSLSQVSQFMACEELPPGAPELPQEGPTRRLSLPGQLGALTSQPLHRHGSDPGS
Description: Inhibition of human ERG expressed in HEK293 cells by manual-patch clamp assay

HepG2 = experiment: cells; conditions: Homo sapiens, HepG2, 48 h
Description: Cytotoxicity against human HepG2 cells measured after 48 hrs by microscopy based analysis

in vivo = conditions: Sprague-Dawley, rat, liver, po, 10 mg/kg
Description: Drug concentration in Sprague-Dawley rat liver at 10 mg/kg, po administered as single dose measured upto 24 hrs by LC-MS/MS analysis

in vitro [15] = conditions: human, Caco-2
Description: Apparent permeability of the compound across apical side to basolateral side in human Caco-2 cells at 10 uM incubated for 2 hrs by LC-MS/MS analysis

in vitro [16] = conditions: human, liver microsomes
in vitro [17] = conditions: rat, hepatocytes
in vitro [18] = conditions: human, hepatocytes
PXR = target: T3, PXR (Homo sapiens, UniProt O75469); experiment: in vitro
T3 sequence (O75469 whole entry): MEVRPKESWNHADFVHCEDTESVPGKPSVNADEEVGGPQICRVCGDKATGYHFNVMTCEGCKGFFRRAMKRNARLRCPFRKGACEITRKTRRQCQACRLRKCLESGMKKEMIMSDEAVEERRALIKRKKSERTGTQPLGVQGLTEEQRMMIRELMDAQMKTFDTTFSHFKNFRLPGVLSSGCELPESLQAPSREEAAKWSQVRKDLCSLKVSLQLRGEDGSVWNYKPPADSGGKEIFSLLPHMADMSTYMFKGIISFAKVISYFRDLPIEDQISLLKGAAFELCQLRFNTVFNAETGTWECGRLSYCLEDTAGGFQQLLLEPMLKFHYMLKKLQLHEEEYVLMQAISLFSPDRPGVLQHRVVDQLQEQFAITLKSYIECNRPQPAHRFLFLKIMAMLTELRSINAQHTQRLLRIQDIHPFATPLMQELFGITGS
Description: Activation of PXR (unknown origin) at 30 uM relative to control

in vitro [19] = conditions: human, primary hepatocytes
Description: Toxicity in human Primary hepatocyte incubated for 48 hrs by Celltiter-Glo assay

in vitro [20] = conditions: human, HepG2 cells
Description: Mitotoxicity in human HepG2 cells incubated for 2 hrs by Celltiter-Glo assay

Compound: C[C@H]1CCN1c1nc(N2CC[C@H](CCC(=O)O)C2)c2c(n1)C(F)(F)CC2
- half-life [1]: 7.16 h
- MRT last at 24 h [2]: 8.5 h
- MRT last at 24 h [3]: 6.09 h
- AUC [4]: 76200 ng·h/mL
- Tmax [5]: 0.75 h
- half-life [6]: 5.21 h
- AUCt [7]: 33400 ng·h/mL
- AUC [8]: 5580 ng·h/mL
- Vd [9]: 0.87 L/kg
- inhibition (Rattus norvegicus): Active
- remaining at 4 h, 10 µM [10]: 98.2%
- remaining at 4 h, 10 µM [11]: 95.8%
- Drug metabolism [12]: Metabolite_Notdetected
- Drug metabolism [13]: Metabolite_Notdetected
- IC50 (Cytochrome P450 2C19): > 10 µM
- IC50 (Ketohexokinase): 0.0572 µM
- IC50 (Cytochrome P450 1A2): > 30 µM
- IC50 [14]: > 30 µM
- IC50 (HepG2): > 150 µM
- concentration at 24 h (in vivo): 50100 ng/g
- Papp A→B at 2 h, 10 µM (in vitro [15]): 3.64 ×10⁻⁶ cm/s
- microsomal CLint at 2 h, 1 µM (in vitro [16]): 6.4 µL/min/mg
- hepatocyte CLint at 2 h, 1 µM (in vitro [17]): < 0.96 µL/min/1e6 cells
- hepatocyte CLint at 2 h, 1 µM (in vitro [18]): < 0.96 µL/min/1e6 cells
- activity at 30 µM (PXR): 0.96%
- IC50 at 48 h (in vitro [19]): > 150 µM
- IC50 at 2 h (in vitro [20]): > 150 µM
